Measurements as given in publication PMC11645267, “Novel pharmacologic inhibition of lysine-specific demethylase 1 as a potential therapeutic for glioblastoma” (Cancer Gene Therapy, 2024).

Tests used:
[1] = target: T1, LSD2 (Homo sapiens, UniProt Q8NB78); assay: Enzyme inhibition assay (in vitro peroxidase assay) against LSD2
T1 sequence (Q8NB78 1-822): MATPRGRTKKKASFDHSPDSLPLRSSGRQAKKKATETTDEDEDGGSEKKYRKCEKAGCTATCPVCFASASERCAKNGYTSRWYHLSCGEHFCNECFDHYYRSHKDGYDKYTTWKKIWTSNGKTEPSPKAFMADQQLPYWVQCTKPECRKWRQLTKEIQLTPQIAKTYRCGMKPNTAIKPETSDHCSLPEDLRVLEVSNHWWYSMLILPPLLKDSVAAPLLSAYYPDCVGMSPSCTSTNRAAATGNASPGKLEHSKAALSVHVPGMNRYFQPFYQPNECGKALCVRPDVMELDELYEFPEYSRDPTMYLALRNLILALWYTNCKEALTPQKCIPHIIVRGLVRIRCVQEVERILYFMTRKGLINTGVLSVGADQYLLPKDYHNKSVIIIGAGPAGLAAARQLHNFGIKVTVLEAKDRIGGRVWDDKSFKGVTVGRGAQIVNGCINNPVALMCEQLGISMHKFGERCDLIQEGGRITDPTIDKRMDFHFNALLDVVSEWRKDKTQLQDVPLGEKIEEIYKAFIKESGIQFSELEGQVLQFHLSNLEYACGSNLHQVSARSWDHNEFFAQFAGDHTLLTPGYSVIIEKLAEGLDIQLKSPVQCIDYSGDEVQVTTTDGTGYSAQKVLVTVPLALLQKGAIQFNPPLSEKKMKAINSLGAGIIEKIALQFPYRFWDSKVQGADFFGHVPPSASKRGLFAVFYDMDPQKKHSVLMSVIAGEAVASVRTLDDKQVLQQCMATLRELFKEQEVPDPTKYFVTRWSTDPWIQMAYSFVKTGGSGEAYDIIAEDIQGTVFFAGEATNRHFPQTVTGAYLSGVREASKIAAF
Procedure: (§1) Enzyme inhibition assays against LSD1, LSD2, MAO-A, and MAO-B were performed as previously described [25]. Technical replicates, n = 3.

[2] = target: T2, MAO-B (Homo sapiens, UniProt P27338); assay: Enzyme inhibition assay (in vitro peroxidase assay) against MAO-B
T2 sequence (P27338 1-520): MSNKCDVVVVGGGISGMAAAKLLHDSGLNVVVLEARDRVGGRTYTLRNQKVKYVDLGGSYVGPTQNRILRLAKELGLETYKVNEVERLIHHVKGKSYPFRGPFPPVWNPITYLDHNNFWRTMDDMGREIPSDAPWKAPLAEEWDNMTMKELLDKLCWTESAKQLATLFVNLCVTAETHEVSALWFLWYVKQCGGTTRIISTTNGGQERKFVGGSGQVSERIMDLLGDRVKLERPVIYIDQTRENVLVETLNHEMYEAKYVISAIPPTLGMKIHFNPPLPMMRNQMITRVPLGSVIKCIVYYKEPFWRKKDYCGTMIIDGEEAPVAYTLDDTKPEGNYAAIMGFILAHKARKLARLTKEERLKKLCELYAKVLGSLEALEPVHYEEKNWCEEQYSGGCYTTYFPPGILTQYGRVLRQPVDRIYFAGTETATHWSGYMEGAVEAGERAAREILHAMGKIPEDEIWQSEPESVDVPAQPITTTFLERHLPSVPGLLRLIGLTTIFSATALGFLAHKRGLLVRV
Procedure: as §1

NC1CCC(NC2CC2c2cc(F)cc(F)c2OCc2ccccc2)CC1 (stereo not shown) [S2172]
Ki [1]: > 250 µM | Inhibition of LSD2 (in words) ([1]; in vitro peroxidase assay): not inhibited | Ki [2]: > 250 µM | Inhibition of MAO-B (in words) ([2]; in vitro peroxidase assay): not inhibited
